Source: patent publication US11866460B2 (priority 2015, dated 2024)
Where no end group is shown, it is not given here.

Legend:
[1] = tested on: S. aureus (ATCC 25923); conditions: for MIC in PB: 10 mM potassium phosphate buffer, pH 7.2; for MIC in PBS: phosphate-buffered saline
[2] = tested on: human erythrocyte cells
[3] = tested on: YFV 17D
[4] = tested on: JEV 14-14-2
[5] = tested on: DENV-2 New Guinea C; conditions: -2 New Guinea C; for EC50: 0 h
[6] = tested on: DENV-4 H241; conditions: for Therapeutic Index (CC50/EC50): -4 H241; for EC50: -4 H241, 0 h
[7] = tested on: DENV-3 H87; conditions: for Therapeutic Index (CC50/EC50): -3 H87; for EC50: -3 H87, 0 h
[8] = tested on: DENV-1 PRS41393; conditions: for Therapeutic Index (CC50/EC50): -1 PRS41393; for EC50: -1 PRS41393, 0 h
[9] = tested on: CHIKV 181/25; conditions: for EC50: 0 h
[10] = in vitro; conditions: African green monkey
[11] = tested on: VEEV TC-83; conditions: 0 h
[12] = tested on: Vero cells; conditions: African green monkey
[13] = tested on: Marburg virus (MARV)
[14] = tested on: Ebola virus (EBOV)

Sequence | MIC in PB [1] | MIC in PBS [1] | MHC [2] | Therapeutic Index (CC50/EC50) [3] | Therapeutic Index (CC50/EC50) [4] | Therapeutic Index (CC50/EC50) [5] | Therapeutic Index (CC50/EC50) [6] | EC50 [6] | Therapeutic Index (CC50/EC50) [7] | EC50 [7] | Therapeutic Index (CC50/EC50) [8] | EC50 [8] | Therapeutic Index (CC50/EC50) [9] | CC50 [10] | EC50 [11] | CC50 [12] | other results
AGSWLRDIWTWLQSAL [TSG008] | 1.5 µM | 1.5 µM | 1.5 µM |  |  |  |  |  |  |  |  |  |  |  |  |  | 
GSSWLRDILTALQSLL [TSG007] | 1.5 µM | 1.5 µM | 1.5 µM |  |  |  |  |  |  |  |  |  |  |  |  |  | 
GSSWLRDIWTALQSWL [TSG006] | 1.5 µM | 1.5 µM | 3 µM | 22.09 | 10.71 | 26.04 | 11.63 | 2.11 µM | 11.71 | 1.63 µM | 12.03 | 1.56 µM | 5.07 | 14.9 µM |  |  | 
GSSWLRDIWTKLQSWL [TSG005] | 1.5 µM | 1.5 µM | 13 µM |  |  |  |  |  |  |  |  |  |  |  |  |  | 
GSSWLRDVWTKLQSWL [TSG004] | 1.5 µM | 1.5 µM | 50 µM | 14.33 | 24.46 | 18.29 | 15.88 | 6.5 µM | 18.64 |  | 13.45 | 6.24 µM | 14.89 | 111 µM | > 50 µM | 114 µM | EC50 [5]: 8.63 µM; EC50 [9]: 9.52 µM
GSSWLRDVWTWLQSAL [TSG003] | 1.5 µM | 1.5 µM | 50 µM | 18.05 |  | 22.33 | 20.23 |  | 22.33 |  | 11.46 | 6.12 µM | 17.72 | 24.5 µM | > 12.5 µM | 38.6 µM | EC50 ([4]; 0 h): 16.3 µM
GSSWLRDVWTWLQSKL [TSG002] | 1.5 µM | 1.5 µM | 50 µM | 7.40 | 6.72 | 9.60 | 8.58 |  | 6.09 | 5.09 µM | 10.41 |  | 4.73 |  | > 12.5 µM | 16.1 µM | EC50 [13]: 0.922 µM; EC50 [5]: 2.74 µM; EC50 [14]: 1.01 µM; EC50 [9]: 3.21 µM
SGSWLRDVWTWLQSKL [TSG001 L-isomer] |  |  |  |  |  |  |  |  |  |  |  |  |  |  |  | > 20 µM | 
SWLRDIWDWICEVLSDFK [C5A, reference compound] |  | >100 µM | 13 µM | 99.97 | 61.68 | 85.26 | 22.13 | 1.65 µM | 15.02 | 3.86 µM | 44.60 |  | 9.38 |  |  |  | EC50 [10]: 29 µM
